Data taken from PMC5572697, “A first-in-human study of the novel HIV-fusion inhibitor C34-PEG4-Chol” (Scientific Reports, 2017).
“Also recorded” adds a separate entry of the source.

What was measured:
[1] = Human plasma pharmacokinetics after a single subcutaneous dose; assay type: in vivo; set-up: Area under plasma-concentration-time-curve: unit not given here; conditions: for half-life / Cmax / Tmax / Vd: sc; for Cmax: LC-MS/MS, non-compartmental, read-out: Maximum observed concentration; for Tmax: read-out: Time to maximum observed concentration; for Vd: read-out: Volume of distribution; for Time-to-MEC (time plasma concentrations remained above the minimum effective concentration): assay cut-off 62.5 ng/mL used as surrogate
Experimental: Intensive pharmacokinetic sampling was performed over the first 24 hours subsequent to dosing with samples collected pre-dose, 0.5 h, 1 h, 2 h, 4 h, 6 h, 8 h, 12 h, 24 h. Thereafter pharmacokinetic sampling was undertaken on days 2, 3, 4, 7, 10, 14, 21 and 28. Plasma samples (100 µL) were extracted in 300 µL of acetonitrile containing 1% formic acid; vortexed and centrifuged at 4000 rpm for 10 minutes. The supernatant was transferred into autosampler vials, and 25 μL injected onto the LC-MS/MS. Quantitative analysis of C34-PEG4-Chol was performed by LC-MS/MS using a Thermo Quantum Access triple quadrupole mass spectrometer, interfaced with a heated electrospray ionisation (H-ESI) source (Thermo Fisher Scientific, Hemel Hempstead, UK). The HPLC system included a variable loop Accela autosampler and an Accela pump (ThermoScientific, Hemel Hempstead, UK). Chromatographic separation was achieved using a reverse-phase XBridge Peptide BEH C18 column (3.5 µm; 50 mm × 2.1 mm) (Waters Corporation, Milford, US) interfaced with a 2 µm C18 Quest column saver (Thermo Scientific, Hemel Hempstead, UK). The gradient mobile phase, consisting of a solvent A (0.1% formic acid in Water) and solvent B (0.1% formic acid in acetonitrile), was delivered at a flow rate of […]. Detection of C34-PEG4-Chol was performed in the pseudo Selected Reaction Monitoring mode, monitoring a triple charged molecular ion [M + 3 H]3 + at m/z 1756.8. The internal standard (quinoxaline), was monitored at m/z 313.1 → 246.1. Peak area ratios of compound to internal standard were utilized to construct a calibration curve with a weighting of 1/x2. Data acquisition and processing was performed using LCQuan software (Version 2.7, Thermo Scientific, Hemel Hempstead, UK). The assay calibration range was between 62.5–10,000 ng/mL; inter and intra-assay accuracy and precision at the assay limit of quantification (LLQ) fell within the designated ±20% of the nominal value, and were within ±15% for all QC levels.
Pharmacokinetic parameters were derived via non-compartmental modeling. The area-under-the-concentration-time-curve (AUC) was calculated following a single dose, assuming linear decrease over time, by linear trapezoidal method. The maximum concentration (Cmax) observed at each dose and the time-to-Cmax (Tmax) were calculated. The time to reach minimum effective concentration was assessed in order to determine the frequency of future dosing regimens. […] Given our assay cut-off was 62.5 ng/mL, our assay cut off was used as a surrogate for the IC90.

mice = assay: Repeat-dose toxicity study in mice; assay type: in vivo; conditions: subcutaneous
Experimental: (§1) Pre-clinical toxicology studies were conducted in 2 species (rodent/mice and non-rodent/dogs). Multiple high doses of C34-PEG4-Chol, up to 12 mg/kg or 10 x the maximum proposed human dose, were administered daily in mice and twice weekly (the intended frequency in humans) in dogs for 14 days, with a 7-day recovery period for both species. […] Toxicology results were analysed independently by the Medicines and Healthcare Regulatory Authority (MHRA), UK before a decision was made to proceed with trial in humans.
(§2) Repeat-dose toxicity studies were conducted in mice (n = 20 at 6 mg/kg/day, n = 20 at 12 mg/kg/day) and dogs (n = 6 at 6 mg/kg/day, n = 6 at 12 mg/kg/day). The subcutaneous route of administration was selected for both species. The highest dose of 12 mg/kg/day was based on the maximal achievable dose with the formulation, and corresponded to 10x the maximum proposed human dose (80 mg, 1.15 mg/kg). No premature decedents occurred in either species. Following observation, animals were euthanised.

dogs = assay: Repeat-dose toxicity study in dogs; assay type: in vivo; conditions: subcutaneous
Experimental: as §1, §2

in vivo [2] = conditions: rat, Wistar Han rats; for AUC(0-inf): plasma LC-MS, mean of three animals per point
Experimental: (§3) C34-PEG4-Chol first in man – Supplementary Information
(§4) Supplementary Information 2:
(§5) Preclinical Pharmacokinetics of C34-PEG4-Chol […]
(§6) C34-PEG4-Chol was formulated in 10 mM phosphate buffered saline (pH 7.2). The concentration of C34-PEG4-Chol in plasma samples was determined by LC-MS as previously […]
(§7) (1 picture or pasted object on this page, not shown here) […]
(§8) Figure S3. Pharmacokinetics of C34-PEG4-Chol in rats 3.5 mg/kg or 1.0 mg/kg (SC and IV, respectively) of C34-PEG4-Chol in 10mM phosphate buffered saline (PBS) were administered to Wistar Han rats: volume of administration 0.5 mL/kg. The concentration of the dosing solution was determined immediately after dosing with the same analytical method utilized to monitor peptide plasma concentration with time, and the analytical curves were adjusted accordingly. Each data point is the mean of three animals.
Table S3. Calculated pharmacokinetics parameters of C34-PEG4-Chol in rats, following intravenous (IV) and subcutaneous (SC) administration.

in vivo [3] = conditions: mouse, C57BL/6 mice; for AUC(0-inf): plasma LC-MS, mean of three animals per point
Experimental: as §3, §4, §5, §6
The PK of C34-PEG4-Chol in C57BL/6 mice following intravenous (IV) and subcutaneous (SC) dosing is shown in […]
as §8, with “S2:” for “S3.”, “mice.” for “rats”, “C57BL/6 mice:” for “Wistar Han rats:”, “5 mL/kg and 2 mL/kg for SC and IV administration, respectively.” for “0.5 mL/kg.”, “accordingly (SC dose 0.56 mg/mL, theor.” for “accordingly. Each data point is the mean of three animals.”
0.5 mg/mL; IV dose 0.62 mg/mL, theor. 0.7 mg/mL). Each data point is the mean of three animals.
as §7

[4] = human, in vivo, 10 mg, participant 1, single SC 10 mg
[5] = human, in vivo, 10 mg, participant 3, single SC 10 mg
[6] = human, in vivo, 20 mg, participant 5, single SC 20 mg
[7] = IV 1.0 mg/kg, read-out: t½ (converted)

For `CC[C@H](C)[C@H](NC(=O)[C@H](CC(C)C)NC(=O)[C@H](CO)NC(=O)[C@H](Cc1c[nH]cn1)NC(=O)[C@@H](NC(=O)[C@H](CC(C)C)NC(=O)[C@H](CO)NC(=O)[C@@H](NC(=O)[C@H](Cc1ccc(O)cc1)NC(=O)[C@H](CC(N)=O)NC(=O)[C@H](CC(N)=O)NC(=O)[C@@H](NC(=O)[C@H](CCC(=O)O)NC(=O)[C@H](CCCNC(=N)N)NC(=O)[C@H](CC(=O)O)NC(=O)[C@H](Cc1c[nH]c2ccccc12)NC(=O)[C@H](CCC(=O)O)NC(=O)[C@H](CCSC)NC(=O)[C@H](Cc1c[nH]c2ccccc12)NC(C)=O)[C@@H](C)CC)[C@@H](C)O)[C@@H](C)CC)C(=O)N[C@@H](CCC(=O)O)C(=O)N[C@@H](CCC(=O)O)C(=O)N[C@@H](CO)C(=O)N[C@@H](CCC(N)=O)C(=O)N[C@@H](CC(N)=O)C(=O)N[C@@H](CCC(N)=O)C(=O)N[C@@H](CCC(N)=O)C(=O)N[C@@H](CCC(=O)O)C(=O)N[C@@H](CCCCN)C(=O)N[C@@H](CC(N)=O)C(=O)N[C@@H](CCC(=O)O)C(=O)N[C@@H](CCC(N)=O)C(=O)N[C@@H](CCC(=O)O)C(=O)N[C@@H](CC(C)C)C(=O)N[C@@H](CC(C)C)C(=O)NCC(=O)N[C@@H](CO)C(=O)NCC(=O)N[C@@H](CSCC(=O)NCCOCCOCCOCCOCCC(=O)O[C@H]1CC[C@@]2(C)C(=CC[C@H]3[C@@H]4CC[C@H]([C@H](C)CCCC(C)C)[C@@]4(C)CC[C@@H]32)C1)C(N)=O` [C34-PEG4-Chol], the half-life [1, 4] was 48 h, the Cmax ([1]; human, in vivo, 10 mg, participant 1, single SC 10 mg, plasma) was 0.417 µg/mL and the Tmax [1, 4] was 2 h. For the same molecule, the Vd [1, 4] was 24 L, the half-life [1, 5] was 54 h and the Cmax ([1]; human, in vivo, 10 mg, participant 3, single SC 10 mg, plasma) was 0.278 µg/mL. The Tmax [1, 5] was 6 h, the Vd [1, 5] was 39.5 L and the half-life [1, 6] was 46 h. It also gave a Cmax ([1]; human, in vivo, 20 mg, participant 5, single SC 20 mg, plasma) of 1.03 µg/mL, a Tmax [1, 6] of 2 h and a Vd [1, 6] of 19.5 L. The AUC ([1]; human, in vivo, participant 3, single SC 10 mg, linear trapezoidal, read-out: Area under plasma-concentration-time-curve) was 0.2 µg·h/mL, the level at 72 h ([1]; human, plasma, two subjects, single SC 10 mg, above the LLOQ, read-out: Plasma concentration at 72 hours) was greater than 0.062 µg/mL and the Area under plasma-concentration-time-curve ([1]; participant 5, single SC 20 mg, linear trapezoidal) was 506. The “Time-to-MEC (time plasma concentrations remained above the minimum effective concentration)” value ([1]; single SC 10 mg) was 72 h, the “Time-to-MEC (time plasma concentrations remained above the minimum effective concentration)” value ([1]; single SC 20 mg) was 96 h and the “Half-life, range over the three participants” value ([1]; single SC 10, 10 and 20 mg) was 46 to 54 h. For the same molecule, the “Injection site reactions (ISRs)” value (mice) was “had not been observed”, the Tolerability (mice; up to 12 mg/kg/day for 14 days) was “well tolerated” and the Tolerability (dogs; 6 and 12 mg/kg, 14 days) was “well tolerated”. The Injection site findings (dogs; also seen in controls, greater severity with the peptide) was “some subcutaneous inflammation at the injection sites; also recorded: mild and reversible”, the clearance (in vivo [2]; IV 1.0 mg/kg) was 0.0288 L/h/kg and the AUC(0-inf) (in vivo [2]; IV 1.0 mg/kg in 10 mM PBS) was 6.6 µM·h. For the same molecule, the Vd (in vivo [2]; IV 1.0 mg/kg, read-out: Vdss) was 0.08 L/kg, the half-life (in vivo [2]; [7]) was 2.18 h and the Cmax (in vivo [2]; SC 3.5 mg/kg) was 0.26 µM. For the same molecule, the Tmax (in vivo [2]; SC 3.5 mg/kg) was 3.3 h, the bioavailability (in vivo [2]; SC 3.5 mg/kg) was 7.97% and the AUC(0-inf) (in vivo [2]; SC 3.5 mg/kg in 10 mM PBS) was 1.86 µM·h. The clearance (in vivo [3]; IV 1.0 mg/kg) was 0.0174 L/h/kg, the AUC(0-inf) (in vivo [3]; IV 1.0 mg/kg in 10 mM PBS) was 10.8 µM·h and the Vd (in vivo [3]; IV 1.0 mg/kg, read-out: Vdss) was 0.05 L/kg. It also gave a half-life (in vivo [3]; [7]) of 1.97 h, a Cmax (in vivo [3]; SC 3.5 mg/kg) of 1.12 µM and a Tmax (in vivo [3]; SC 3.5 mg/kg) of 5.3 h. It also gave a bioavailability (in vivo [3]; SC 3.5 mg/kg) of 30.3% and an AUC(0-inf) (in vivo [3]; SC 3.5 mg/kg in 10 mM PBS) of 11.5 µM·h.
